Key:
[1] = system: ceramide in HCT116 cells; assay: Ceramide ELISA of cell lysate; format: cell-based, human; conditions: HCT116, 20 µM, 24 h
Method: The cellular levels of S1P, sphingosine, and ceramide were detected using an ELISA assay kit (MyBioSource, Inc., San Diego, CA, USA) according to the manufacturer’s instruction. For S1P ELISA, 100 µL cell lysates or standards were added in pre-coated ELISA wells, incubated for 90 min at 37 °C, and treated with 1x biotinylated anti S1P antibody for 1 h. Following treatment of HRP conjugated secondary antibody, the substrate was added and allowed to change the color for 15 min; then, the stop solution was added and absorbance was measured at 450 nm using a Multiskan GO (Thermo Scientific, Waltham, MA, USA) microplate spectrophotometer. […] A stop solution (50 µL) was added to each well, and optical density was measured at 450 nm using a microplate reader. […] After incubation, 50 µL substrate A and B was added to the plate and incubated at 37 °C for 20 min; a stop solution (50 µL) was added to each well and optical density was determined at 450 nm using a microplate reader. The concentration of S1P, sphingosine, and ceramide were calculated as ng/mL using respective standard curves constructed by Skanlt microplate reader software 5.0 (Thermo Scientific, Waltham, MA, USA).

[2] = system: AKT and ERK phosphorylation in HCT116 cells; assay: Western blotting of pAKT and pERK; format: cell-based, human; conditions: HCT116, 20 µM
Method: (§1) The cell lysate was prepared after successive treatment using mammalian protein extraction buffer (Organic buffer + 10 mM NaCl + detergent pH 7.5) mixed with 1% protease/phosphatase inhibitor cocktail; protein was quantified with BCA assay, boiled at 95 °C for 10 min by adding sample loading buffer, separated using SDS-PAGE, and transferred into methanol-activated PVDF membrane. Primary antibodies were probed overnight in PVDF membrane at 4 °C and […] with subsequent HRP anti-mouse and anti-rabbit secondary antibodies at room temperature. Then, membranes were washed with TBST buffer, and images were detected by Amersham Imager 680 (GE Healthcare; Leiden, WZ, The Netherlands) using ECL solution. Band intensities were analyzed and quantified using Image J software (version 1.53i).

[3] = target: CYP2C9 (Homo sapiens, UniProt P11712); assay: Inhibition of CYP enzymes activity, human liver microsomes; conditions: human liver microsomes 0.25 mg/mL, 10 μM, diclofenac substrate
Chain of CYP2C9 (P11712 whole entry): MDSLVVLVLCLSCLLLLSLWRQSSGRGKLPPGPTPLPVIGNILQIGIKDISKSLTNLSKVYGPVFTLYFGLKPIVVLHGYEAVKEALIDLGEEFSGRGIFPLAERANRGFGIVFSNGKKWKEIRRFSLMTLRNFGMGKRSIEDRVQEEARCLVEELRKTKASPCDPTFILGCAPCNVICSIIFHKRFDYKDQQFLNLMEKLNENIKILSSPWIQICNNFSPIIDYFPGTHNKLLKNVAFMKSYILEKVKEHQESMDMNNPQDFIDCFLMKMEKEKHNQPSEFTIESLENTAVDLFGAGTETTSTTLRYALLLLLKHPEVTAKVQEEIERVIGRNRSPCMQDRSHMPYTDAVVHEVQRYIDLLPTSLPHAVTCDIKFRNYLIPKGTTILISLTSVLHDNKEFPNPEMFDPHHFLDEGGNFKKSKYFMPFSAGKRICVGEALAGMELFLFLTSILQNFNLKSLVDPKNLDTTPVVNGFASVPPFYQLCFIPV
Method: By simultaneously analyzing metabolites, the ability of the six compounds to inhibit drug metabolism enzymes was evaluated.
(§2) Metabolites of each CYP coenzyme indicator drug generated through the above reaction were analyzed using the Shimadzu Nexera XR system and TSQ vantage (Thermo). The HPLC column was a Kinetex C18 column (2.1 × 100 mm^2, 2.6 μm particle size; Phenomenex, Torrance, CA, USA), and the mobile phase was distilled water (A) containing 0.1% formic acid and acetonitrile (B) containing 0.1% formic acid. […] The generated metabolites were quantified using MRM (Multiple Reaction Monitoring) quantification modes, and data were analyzed using Xcalibur (version 1.6.1).

[4] = In vitro metabolic stability in liver microsomes; format: in vitro ADME, mouse
[5] = system: HT29 cells; assay: Annexin V-FITC/PI staining, flow cytometry; format: cell-based, human; conditions: HT29, 10 and/or 20 µM, 24 h
[6] = target: T1, CYP1A2 (Homo sapiens, UniProt P05177); assay: Inhibition of CYP enzymes activity, human liver microsomes; conditions: human liver microsomes 0.25 mg/mL, 10 μM, phenacetin substrate
T1 sequence (P05177 1-516): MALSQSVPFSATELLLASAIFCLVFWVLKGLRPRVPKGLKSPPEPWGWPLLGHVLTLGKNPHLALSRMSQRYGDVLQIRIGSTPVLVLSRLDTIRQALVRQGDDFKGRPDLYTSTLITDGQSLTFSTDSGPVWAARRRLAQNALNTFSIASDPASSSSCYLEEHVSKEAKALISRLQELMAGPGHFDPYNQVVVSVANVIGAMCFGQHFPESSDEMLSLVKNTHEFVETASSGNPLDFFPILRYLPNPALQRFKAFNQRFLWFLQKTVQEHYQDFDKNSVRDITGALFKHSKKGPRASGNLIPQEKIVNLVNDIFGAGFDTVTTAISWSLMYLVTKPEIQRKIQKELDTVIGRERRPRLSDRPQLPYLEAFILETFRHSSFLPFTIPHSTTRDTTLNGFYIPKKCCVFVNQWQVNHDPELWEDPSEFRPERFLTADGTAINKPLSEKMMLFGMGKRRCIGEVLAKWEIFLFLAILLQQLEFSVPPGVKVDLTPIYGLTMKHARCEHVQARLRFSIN
Method: Afterward, to terminate the reaction, an acetonitrile solution containing an internal standard (terfenadine) was added, centrifuged for 5 min (14,000 rpm, 4 °C), and the supernatant was injected into the LC-MS/MS system. By simultaneously analyzing metabolites, the ability of the six compounds to inhibit drug metabolism enzymes was evaluated.
as §2

[7] = target: T2, PP2A in HCT116 cells (Homo sapiens, UniProt P67775); assay: PP2A activity assay (immunoprecipitation kit); format: cell-based; conditions: HCT116, 24 h, 20 µM of compounds 10, 11 and 13; vs nontreated control cells
T2 construct: endogenous in cells; host or cells: HCT116
T2 sequence (P67775 whole entry): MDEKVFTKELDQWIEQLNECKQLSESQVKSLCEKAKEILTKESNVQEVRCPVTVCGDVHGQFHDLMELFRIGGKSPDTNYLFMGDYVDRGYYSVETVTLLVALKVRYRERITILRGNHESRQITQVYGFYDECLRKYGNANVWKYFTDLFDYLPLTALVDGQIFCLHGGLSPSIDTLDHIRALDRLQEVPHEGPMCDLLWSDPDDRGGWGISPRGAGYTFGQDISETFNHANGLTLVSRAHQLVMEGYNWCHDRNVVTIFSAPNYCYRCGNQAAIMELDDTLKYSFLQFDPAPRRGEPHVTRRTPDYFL
Method: The activity of PP2A was measured by using the PP2A kit according to the manufacturer’s instruction. The cell lysate was incubated with anti PP2A, C subunit antibody, and protein A agarose slurry for 2 h at 4 °C. The phosphopeptide solution (60 µL) was mixed and incubated at 30 °C for 10 min in a shaker. After a brief centrifuge, a 25 µL sample was liquated in ½ volume microplate and 100 µL malachite green phosphate detection working solution was added. After color development, absorbance was taken at 650 nm in a Multiskan GO microplate reader. A phosphate standard curve was constructed using phosphate standard, and results were calculated using this standard curve. This experiment was repeated three times (n = 6).

[8] = system: PARP, caspase-3, Bcl-2, BAX in HCT116 cells; assay: Western blotting of apoptotic pathway-related proteins; format: cell-based, human
Method: as §1

SMILES: CCCCCCCOc1ccc(CCN2CCN(CCO)CC2)cc1 [Compound 10, 2-(4-(4-(Heptyloxy)phenethyl)piperazin-1-yl)ethanol]
- ceramide level [1]: increased
- phosphorylation of AKT and ERK [2]: significantly reduced phosphorylation of AKT and ERK
- CYP2C9 activity (% of control activity) [3]: >100%
- liver microsomal stability, Mouse (%) ([4]; % remaining after 30 min, NADPH): 44.7%
- liver microsomal stability (in words) ([4]; mouse): unstable
- apoptosis (annexin V assay) [5]: induced apoptosis
- CYP1A2 activity (% of control activity) [6]: >100%
- PP2A activity increase [7]: 1.73 fold
- expression of antiapoptotic Bcl-2 protein ([8]; HCT116, 10 and 20 µM): decreased the expression of antiapoptotic Bcl-2 protein
- expression of proapoptotic protein BAX ([8]; HCT116, 10 and 20 µM): increased the expression of proapoptotic protein BAX
- cleavage of caspase-3 ([8]; HCT116, 10 and 20 µM, vs nontreated control): effectively increased the cleavage
- cleaved PARP level ([8]; HCT116, vs nontreated groups): increased cleaved PARP level
